Measured values published in patent US20240034743A9, “TRICYCLIC COMPOUNDS AS EGFR INHIBITORS” (QILU PHARMACEUTICAL CO., LTD., priority 2020, published 2024).
Like-named read-outs stand apart in the source and are kept apart here.

Assays:
[1] = tested on: Ba/F3_L858R/T790M/C797S cells; assay: Ba/F3_L858R/T790M/C797S cell proliferation inhibition assay (CellTiter-Glo); assay type: cell-based; conditions: Mus musculus
Procedure: Ba/F3_L858R/T790M/C797S Cell Proliferation Inhibition Assay
In the assay, the inhibition effect of the compounds on the proliferation of Ba/F3_L858R/T790M/C797S cells was tested by adopting a CellTiter-Glo method, and the concentration IC50 of the compound for inhibiting half maximal growth of cells was obtained.
Ba/F3_L858R/T790M/C797S cells were constructed by Pharmaron Beijing Co., Ltd.
1640 medium, fetal bovine serum (FBS), Penicillin-Streptomyces, and GlutaMAX-I Supplement, purchased from GIBCO.
(§1) Brigatinib, purchased from Selleck.
(§2) CellTiter-Glo reagent, purchased from Promega.
1) Ba/F3_L858R/T790M/C797S cells were seeded in a 384-well plate at a density of 700 cells/well with 30 μL/well.
(§3) 2) Day 0: […] of gradiently-diluted compounds to be tested with a final concentration of DMSO of 0.1% was added to plate using Echo, and the plate was incubated in a cell incubator for 72 h (37° C., 5% CO2). […] of DMSO was added into each well in blank control group.
(§4) 3) Day 3: 30 μL Cell Titer-Glo reagent was added to each well, and the plate was in the dark under room temperature for 30 min.
(§5) 4) The chemiluminescent signal was detected by an Envision plate reader (PerkinElmer).
(§6) 5) Data analysis was performed using GraphPad Prism software to give the IC50 for compounds.

[2] = tested on: Ba/F3_Del19/T790M/C797S cells; assay: Ba/F3_Del19/T790M/C797S cell proliferation inhibition assay (CellTiter-Glo); assay type: cell-based; conditions: Mus musculus
Procedure: Ba/F3_Del19/T790M/C797S Cell Proliferation Inhibition Assay
In the assay, the inhibition effect of the compounds on the proliferation of Ba/F3_Del19/T790M/C797S cells was tested by adopting a CellTiter-Glo method, and the concentration IC50 of the compound for inhibiting half maximal growth of cells was obtained.
Ba/F3_Del19/T790M/C797S, purchased from Kyinno Biotechnology Co., Ltd. 1640 medium, fetal bovine serum (FBS), Penicillin-Streptomyces, and GlutaMAX-I Supplement, purchased from GIBCO.
as §1, §2
1) Ba/F3_Del19/T790M/C797S cells were seeded in a 384-well plate at a density of 700 cells/well with 30 μL/well.
as §3, §4, §5
Data analysis was performed using GraphPad Prism 6 software to give the IC50 for compounds.

A431 cells (EGFR WT) = assay: A431 cell proliferation inhibition assay (CellTiter-Glo); assay type: cell-based; conditions: Homo sapiens
Procedure: A431 Cell Proliferation Inhibition Assay
In the assay, the inhibition effect of the compounds on the proliferation of A431 cells was tested by adopting a CellTiter-Glo method, and the concentration IC50 of the compound for inhibiting half maximal growth of cells was obtained.
A431 cells, purchased from ATCC.
DMEM medium, fetal bovine serum (FBS), and Penicillin-Streptomycin, purchased from GIBCO.
as §1, §2
1) A431 cells were seeded in a 384-well plate at a density of 800 cells/well with 30 μL/well, and the plate was cultured in a cell incubator for 24 h (37° C., 5% CO2).
as §3, §4, §5, §6

EGFR WT (wild type EGFR) = EGFR WT (wild type EGFR) (Homo sapiens (Human), UniProt P00533); assay: In vitro enzymatic TR-FRET (HTRF KinEASE-TK) kinase assay, EGFR WT; assay type: biochemical; conditions: kinase activity, TR-FRET; read-out: EGFR (WT) IC50
EGFR WT (wild type EGFR), sequence (P00533 25-1210): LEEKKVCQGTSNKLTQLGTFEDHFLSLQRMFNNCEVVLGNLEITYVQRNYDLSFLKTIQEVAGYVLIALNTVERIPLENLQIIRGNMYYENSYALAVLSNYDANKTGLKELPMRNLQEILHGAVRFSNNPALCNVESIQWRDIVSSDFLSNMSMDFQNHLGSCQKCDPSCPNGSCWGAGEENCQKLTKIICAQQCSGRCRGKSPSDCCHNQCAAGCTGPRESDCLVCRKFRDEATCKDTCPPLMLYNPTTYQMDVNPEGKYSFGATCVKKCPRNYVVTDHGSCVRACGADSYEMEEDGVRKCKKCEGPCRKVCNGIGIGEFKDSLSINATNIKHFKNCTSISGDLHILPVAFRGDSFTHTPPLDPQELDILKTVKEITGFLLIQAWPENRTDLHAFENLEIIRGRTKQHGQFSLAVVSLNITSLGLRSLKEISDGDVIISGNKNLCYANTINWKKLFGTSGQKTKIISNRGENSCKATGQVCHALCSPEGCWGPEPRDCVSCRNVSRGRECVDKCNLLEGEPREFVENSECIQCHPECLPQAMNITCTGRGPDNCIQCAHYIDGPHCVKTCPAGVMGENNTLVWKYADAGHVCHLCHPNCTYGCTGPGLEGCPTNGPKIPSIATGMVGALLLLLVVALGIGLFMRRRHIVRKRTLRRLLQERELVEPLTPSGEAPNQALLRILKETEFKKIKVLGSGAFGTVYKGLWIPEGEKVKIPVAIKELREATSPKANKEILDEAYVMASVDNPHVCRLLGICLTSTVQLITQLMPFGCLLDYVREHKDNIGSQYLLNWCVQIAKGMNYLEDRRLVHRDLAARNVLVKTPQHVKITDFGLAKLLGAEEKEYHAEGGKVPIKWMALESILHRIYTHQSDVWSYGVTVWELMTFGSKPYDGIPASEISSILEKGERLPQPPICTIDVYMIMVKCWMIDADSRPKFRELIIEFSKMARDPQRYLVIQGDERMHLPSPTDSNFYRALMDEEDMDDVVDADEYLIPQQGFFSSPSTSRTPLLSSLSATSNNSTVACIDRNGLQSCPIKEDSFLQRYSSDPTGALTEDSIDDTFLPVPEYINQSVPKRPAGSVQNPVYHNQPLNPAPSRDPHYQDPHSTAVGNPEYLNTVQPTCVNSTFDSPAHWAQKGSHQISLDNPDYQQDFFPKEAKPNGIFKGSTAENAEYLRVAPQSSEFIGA
Procedure: (I) In Vitro Enzymatic Experiment for EGFR WT and EGFR L858R/T790M/C797S
In the assay, the inhibition effect of the compound on the kinase activity of EGFR WT (wild type EGFR) and EGFR L858R/T790M/C797S was tested by adopting a time-resolved fluorescence resonance energy transfer (TR-FRET) method, and half maximal inhibitory concentration IC50 of the compound on the kinase activity of EGFR was obtained.
EGFR recombinase and EGFR L858R/T790M/C797S recombinase, purchased from Signalchem.
HTRF KinEASE-TK kit, purchased from Cisbio.
DTT, MnCl2, and MgCl2, purchased from Sigma.
ATP, purchased from Promega.
as §1
1) 1× working solution was prepared: 5 mM MgCl2; 1 mM DTT; 1 mM MnCl2 and 1× kinase buffer (in kit).
2) […] of gradiently-diluted compound was transferred to a 384-well plate using Echo 550 (Labcyte).
3) 5 μL of 2× EGFR WT or EGFR L858R/T790M/C797S recombinase solution was added to the 384-well plate, and the plate was incubated at room temperature for 10 min.
4) 5 μL of 2× TK-substrate-biotin substrate solution (containing ATP) was added to the 384-well plate, and the plate was incubated at room temperature for 40 min.
5) 5 μL of assay solution containing Sa-XL 665 HTRF and 5 μL of TK-antibody-Cryptatewas were added to the plate, and the plate was incubated at room temperature for 1 h.
6) The fluorescence signal values at 615 nm and 665 nm were measured for each well using an Envision microplate reader (PerkinElmer).
7) The ratio of fluorescence signal values at 665 nm and 615 nm was calculated for each well.
8) Data analysis was performed using GraphPad Prism software to give the IC50 for compounds.

[3] = BaF3, cell proliferation, 72 h, CellTiter-Glo, read-out: Ba/F3 (L858R/T790M/C797S) IC50
[4] = BaF3, cell proliferation, 72 h, CellTiter-Glo, read-out: Ba/F3 (Del19/T790M/C797S) IC50
[5] = A-431, cell proliferation, 72 h, CellTiter-Glo, read-out: A431 EGFR WT IC50

Compound	IC50 [1, 3] [nM]	IC50 [2, 4] [nM]	IC50 (A431 cells (EGFR WT); [5]) [nM]	IC50 (EGFR WT (wild type EGFR)) [nM]	IC50 ([1]; BaF3, 72 h, read-out: Ba/F3 (L858R/T790M/C797S) IC50(nM)) [nM]	IC50 ([2]; BaF3, 72 h, read-out: Ba/F3 (Del19/T790M/C797S) IC50(nM)) [nM]	IC50 (A431 cells (EGFR WT); A-431, 72 h, read-out: A431 EGFR WT IC50(nM)) [nM]
COc1cc2c(cc1Nc1ncc(Br)c(Nc3ccc4nccnc4c3P(C)(C)=O)n1)-c1cnn(C)c1CCN2C [Compound 1]	< 10	< 10	50 to 100				
COc1cc2c(cc1Nc1ncc(Br)c(Nc3ccccc3P(C)(C)=O)n1)-c1cnn(C)c1CCN2C [Compound 2]	< 10	< 10	50 to 100	1 to 10			
COc1cc2c(cc1Nc1ncc(Br)c(Nc3ccccc3N(C)S(=O)(=O)C3CC3)n1)-c1cnn(C)c1CCN2C [Compound 3]	< 10	< 10	100 to 1000	1 to 10			
COc1cc2c(cc1Nc1ncc(Br)c(Nc3ccccc3N(C)S(C)(=O)=O)n1)-c1cnn(C)c1CCN2C [Compound 4]	< 10	< 10	100 to 1000	1 to 10			
COc1cc2c(cc1Nc1ncc(Br)c(Nc3ccc4nccnc4c3P(C)(C)=O)n1)-c1cnn(C)c1CCN2C(C)C [Compound 6]	< 10	< 10	100 to 1000	1 to 10			
COc1cc2c(cc1Nc1ncc(C)c(Nc3ccccc3P(C)(C)=O)n1)-c1cnn(C)c1CCN2C [Compound 7]	< 10	< 10	100 to 1000	1 to 10			
COc1cc2c(cc1Nc1ncc(Br)c(Nc3ccc4nccnc4c3P(C)(C)=O)n1)-c1cn(C)nc1CCN2C [Compound 8]	< 10	< 10	50 to 100	1 to 10			
COc1cc2c(cc1Nc1ncc(Cl)c(Nc3ccc4nccnc4c3P(C)(C)=O)n1)-c1cnn(C)c1CCN2C [Compound 13]	< 10	< 10	50 to 100				
COc1cc2c(cc1Nc1ncc(Br)c(Nc3ccccc3NS(C)(=O)=O)n1)-c1cnn(C)c1CCN2C [Compound 32]	< 10	< 10	100 to 1000				
COc1cc2c(cc1Nc1ncc(Br)c(Nc3ccccc3P(C)(C)=O)n1)-c1cnn(C)c1CCC2N (stereo not drawn) [Compound 50]					10 to 50	10 to 50	100 to 1000
COc1cc2c(cc1Nc1ncc(Br)c(Nc3ccccc3P(C)(C)=O)n1)-c1cnn(C)c1CCN2C1CN(C)C1 [Compound 59]	10 to 50	10 to 50	100 to 1000				
COc1cc2c(cc1Nc1ncc(Br)c(Nc3ccc4nccnc4c3P(C)(C)=O)n1)-c1cnn(C)c1CCN2C1CCN(C)CC1 [Compound 62]	< 10	< 10	10 to 50				
COc1cc2c(cc1Nc1ncc(Br)c(Nc3ccc4nccnc4c3P(C)(C)=O)n1)-c1cnn(C)c1CCN2C1CN(C(C)C)C1 [Compound 63]	< 10	< 10	10 to 50				
COc1cc2c(cc1Nc1ncc(Br)c(Nc3ccccc3P(C)(C)=O)n1)-c1cnn(C)c1CCN2C1COC1 [Compound 64]	10 to 50	< 10	100 to 1000				
COc1cc2c(cc1Nc1ncc(Br)c(Nc3ccc4nccnc4c3P(C)(C)=O)n1)-c1cnn(C)c1CCN2C1CCN(C)CC1F (stereo not drawn) [Compound 67]	< 10	< 10	50 to 100				
